Source: PubChem BioAssay AID246 (DTP/NCI, 2004)
“And” between values parts separate entries of the source, which are not always exact repeats. Equal entries are not always repeated. Inconclusive results and toxic doses are left out.

Test system: BDF1 mice, P1081 chloroleukemia ip, survival T/C
Test: NCI In Vivo Anticancer Drug Screen. Data for tumor model P1081 Chloroleukemia (intraperitoneal) in B6D2F1 (BDF1) mice
Conditions: endpoint: mean survival time, higher = longer survival
Procedure: The antitumor activity of compounds was measured in mice bearing transplantable tumors. Survival or tumor size were measured and the results are expressed as the measurement made in the treated group (T) divided by the measurement made in the vehicle treated control group (C). The tumor model used in this assay is P1081 Chloroleukemia (intraperitoneal) in B6D2F1 (BDF1) mice

[1] = dose: 62.5 mg/kg/injection, schedule: Q01DX010 (ip), vehicle: saline
[2] = dose: 125.0 mg/kg/injection, schedule: Q01DX010 (ip), vehicle: saline
[3] = dose: 12.5 mg/kg/injection, schedule: Q01DX010 (ip), vehicle: saline
[4] = dose: 25.0 mg/kg/injection, schedule: Q01DX010 (ip), vehicle: saline
[5] = dose: 6.25 mg/kg/injection, schedule: Q01DX010 (ip), vehicle: saline

With `C[C@]12CC[C@H](OC3OC(CO)C(O)C(O)C3O)C[C@H]1CC[C@@H]1[C@@H]2CC[C@]2(C)[C@@H](C3=CCOC3=O)CC[C@]12O` (stereo partly specified) the T/C (dose: 0.5 mg/kg/injection, schedule: Q01DX Z (ip), vehicle: saline) was 94 % of control, the T/C (dose: 1.0 mg/kg/injection, schedule: Q01DX Z (ip), vehicle: saline) was 96 % of control and the T/C (dose: 31.0 micrograms/kg/injection, schedule: Q01DX Z (ip), vehicle: saline) was 101 % of control. The T/C (dose: 63.0 micrograms/kg/injection, schedule: Q01DX Z (ip), vehicle: saline) was 98 % of control, the T/C (dose: 125.0 micrograms/kg/injection, schedule: Q01DX Z (ip), vehicle: saline) was 104 % of control and the T/C (dose: 250.0 micrograms/kg/injection, schedule: Q01DX Z (ip), vehicle: saline) was 104 % of control. For the same molecule, the T/C (dose: 500.0 micrograms/kg/injection, schedule: Q01DX Z (ip), vehicle: saline) was 110 % of control.

`Nc1nc(F)nc2c1ncn2C1OC(CO)C(O)C1O` (stereo unspecified) was tested, and the T/C (dose: 0.25 mg/kg/injection, schedule: Q01DX010 (ip), vehicle: saline) was 100 % of control, the T/C (dose: 0.5 mg/kg/injection, schedule: Q01DX010 (ip), vehicle: saline) was 94 % of control and the T/C (dose: 1.0 mg/kg/injection, schedule: Q01DX010 (ip), vehicle: saline) was 110 % of control and 100 % of control. The T/C (dose: 2.0 mg/kg/injection, schedule: Q01DX010 (ip), vehicle: saline) was 111 % of control and 105 % of control and the T/C (dose: 4.0 mg/kg/injection, schedule: Q01DX010 (ip), vehicle: saline) was 95 % of control.

`N=C(N)c1ccc(Nc2ccc(C(=N)N)cc2)cc1` was tested, and the T/C (dose: 0.8 mg/kg/injection, schedule: Q01DX Z (ip), vehicle: methylcellulose (MC)) was 95 % of control, the T/C (dose: 1.6 mg/kg/injection, schedule: Q01DX Z (ip), vehicle: methylcellulose (MC)) was 107 % of control and the T/C (dose: 3.0 mg/kg/injection, schedule: Q01DX010 (ip), vehicle: saline) was 111 % of control. For the same molecule, the T/C (dose: 3.1 mg/kg/injection, schedule: Q01DX Z (ip), vehicle: methylcellulose (MC)) was 96 % of control and 103 % of control, the T/C (dose: 6.0 mg/kg/injection, schedule: Q01DX010 (ip), vehicle: saline) was 100 % of control and the T/C (dose: 6.3 mg/kg/injection, schedule: Q01DX Z (ip), vehicle: methylcellulose (MC)) was 99 % of control. For the same molecule, the T/C (dose: 12.0 mg/kg/injection, schedule: Q01DX010 (ip), vehicle: saline) was 100 % of control and the T/C (dose: 12.5 mg/kg/injection, schedule: Q01DX Z (ip), vehicle: methylcellulose (MC)) was 98 % of control.

With `CN(C)CC(=O)c1ccc(O)c(O)c1` the T/C (dose: 16.0 mg/kg/injection, schedule: Q01DX Z (ip), vehicle: saline) was 114 % of control, the T/C (dose: 31.0 mg/kg/injection, schedule: Q01DX Z (ip), vehicle: saline) was 112 % of control and the T/C (dose: 62.0 mg/kg/injection, schedule: Q01DX Z (ip), vehicle: saline) was 118 % of control. The T/C (dose: 125.0 mg/kg/injection, schedule: Q01DX Z (ip), vehicle: saline) was 115 % of control.

`CC[n+]1c(-c2ccccc2)c2cc(N)ccc2c2ccc(N)cc21` was tested, and the T/C (dose: 2.5 mg/kg/injection, schedule: Q01DX010 (ip), vehicle: saline) was 165 % of control and 222 % of control, the T/C (dose: 5.0 mg/kg/injection, schedule: Q01DX010 (ip), vehicle: saline) was 190 % of control and 333 % of control and the T/C (dose: 20.0 mg/kg/injection, schedule: Q01DX010 (ip), vehicle: saline) was 100 % of control.

`CCCCn1cnc2c(=S)nc[nH]c21` was tested, and the T/C (dose: 12.5 mg/kg/injection, schedule: Q01DX Z (ip), vehicle: carboxymethylcellulose (CMC)) was 105 % of control, the T/C (dose: 16.0 mg/kg/injection, schedule: Q01DX010 (ip), vehicle: saline) was 115 % of control and the T/C (dose: 25.0 mg/kg/injection, schedule: Q01DX Z (ip), vehicle: carboxymethylcellulose (CMC)) was 98 % of control. The T/C (dose: 50.0 mg/kg/injection, schedule: Q01DX Z (ip), vehicle: carboxymethylcellulose (CMC)) was 114 % of control, the T/C (dose: 100.0 mg/kg/injection, schedule: Q01DX Z (ip), vehicle: carboxymethylcellulose (CMC)) was 98 % of control and the T/C (dose: 128.0 mg/kg/injection, schedule: Q01DX010 (ip), vehicle: saline) was 95 % of control.

In the case of `CCCCNc1ncnc2c1cnn2C`, the T/C (dose: 16.0 mg/kg/injection, schedule: Q01DX Z (ip), vehicle: carboxymethylcellulose (CMC)) is reported as 101 % of control, the T/C (dose: 31.0 mg/kg/injection, schedule: Q01DX Z (ip), vehicle: carboxymethylcellulose (CMC)) is reported as 117 % of control and the T/C (dose: 31.25 mg/kg/injection, schedule: Q01DX010 (ip), vehicle: saline) is reported as 95 % of control and 100 % of control. For the same molecule, the T/C [1] was 95 % of control and 100 % of control, the T/C (dose: 62.5 mg/kg/injection, schedule: Q01DX Z (ip), vehicle: carboxymethylcellulose (CMC)) was 113 % of control and the T/C [2] was 90 % of control and 105 % of control.

With `CN(C)[C@@H]1C(=O)C(C(N)=O)=C(O)[C@@]2(O)C(=O)C3=C(O)c4c(O)cccc4C[C@H]3C[C@@H]12` the T/C (dose: 7.5 mg/kg/injection, schedule: Q01DX010 (ip), vehicle: saline) was 100 % of control, the T/C (dose: 15.0 mg/kg/injection, schedule: Q01DX010 (ip), vehicle: saline) was 90 % of control and 100 % of control and the T/C (dose: 30.0 mg/kg/injection, schedule: Q01DX010 (ip), vehicle: saline) was 100 % of control and 105 % of control. The T/C (dose: 60.0 mg/kg/injection, schedule: Q01DX010 (ip), vehicle: saline) was 111 % of control.

`CC/C(=C(/CC)c1ccc(O)cc1)c1ccc(O)cc1` was tested, and the T/C [3] was 100 % of control, the T/C (dose: 16.0 mg/kg/injection, schedule: Q01DX Z (sc), vehicle: steriod suspending solution) was 95 % of control and the T/C [4] was 100 % of control and 105 % of control. For the same molecule, the T/C (dose: 50.0 mg/kg/injection, schedule: Q01DX010 (ip), vehicle: saline) was 100 % of control and 105 % of control and the T/C (dose: 125.0 mg/kg/injection, schedule: Q01DX Z (sc), vehicle: steriod suspending solution) was 88 % of control.

For `Nc1c(Br)cc2c(c1Br)Cc1cc([N+](=O)[O-])ccc1-2`, the T/C (dose: 15.6 mg/kg/injection, schedule: Q01DX010 (ip), vehicle: saline) was 100 % of control, the T/C (dose: 31.3 mg/kg/injection, schedule: Q01DX010 (ip), vehicle: saline) was 105 % of control and the T/C [1] was 110 % of control and 100 % of control. The T/C [2] was 100 % of control, the T/C (dose: 250.0 mg/kg/injection, schedule: Q01DX010 (ip), vehicle: saline) was 100 % of control and the T/C (dose: 500.0 mg/kg/injection, schedule: Q01DX010 (ip), vehicle: saline) was 95 % of control.

`CCCNc1ncnc2[nH]ncc12` was tested, and the T/C (dose: 3.13 mg/kg/injection, schedule: Q01DX010 (ip), vehicle: saline) was 100 % of control, the T/C (dose: 5.0 mg/kg/injection, schedule: Q01DX Z (ip), vehicle: water) was 90 % of control and the T/C [5] was 100 % of control. For the same molecule, the T/C (dose: 10.0 mg/kg/injection, schedule: Q01DX Z (ip), vehicle: water) was 93 % of control, the T/C (dose: 20.0 mg/kg/injection, schedule: Q01DX Z (ip), vehicle: water) was 102 % of control and the T/C [4] was 90 % of control.

With `Nc1nc(N)c2nc(CNc3ccc(C(=O)NC(CCC(=O)O)C(=O)O)cc3)cnc2n1` (stereo unspecified) the T/C (dose: 0.05 mg/kg/injection, schedule: Q01DX010 (ip), vehicle: other) was 120 % of control, the T/C (dose: 0.2 mg/kg/injection, schedule: Q01DX010 (ip), vehicle: other) was 160 % of control and 170 % of control and the T/C (dose: 0.4 mg/kg/injection, schedule: Q01DX010 (ip), vehicle: other) was 90 % of control. The T/C (dose: 8.0 micrograms/kg/injection, schedule: Q01DX Z (ip), vehicle: alkali diluted with saline) was 117 % of control, the T/C (dose: 16.0 micrograms/kg/injection, schedule: Q01DX Z (ip), vehicle: alkali diluted with saline) was 107 % of control and the T/C (dose: 31.0 micrograms/kg/injection, schedule: Q01DX Z (ip), vehicle: alkali diluted with saline) was 99 % of control.

In the case of `O=P1(N(CCCl)CCCl)NCCCO1` (stereo unspecified), the T/C (dose: 3.12 mg/kg/injection, schedule: Q01DX Z (ip), vehicle: saline) is reported as 110 % of control, the T/C (dose: 6.25 mg/kg/injection, schedule: Q01DX Z (ip), vehicle: saline) is reported as 119 % of control and the T/C (dose: 6.3 mg/kg/injection, schedule: Q01DX Z (ip), vehicle: saline) is reported as 102 % of control. For the same molecule, the T/C (dose: 11.3 mg/kg/injection, schedule: Q01DX010 (ip), vehicle: saline) was 113 % of control and 117 % of control (2×), the T/C (dose: 22.5 mg/kg/injection, schedule: Q01DX010 (ip), vehicle: saline) was 107 % of control and 120 % of control and 121 % of control and the T/C (dose: 45.0 mg/kg/injection, schedule: Q01DX010 (ip), vehicle: saline) was 105 % of control and 107 % of control. The T/C (dose: 90.0 mg/kg/injection, schedule: Q01DX010 (ip), vehicle: saline) was 105 % of control and 90 % of control, the T/C (dose: 100.0 mg/kg/injection, schedule: Q01DX Z (ip), vehicle: saline) was 115 % of control and the T/C (dose: 180.0 mg/kg/injection, schedule: Q01DX010 (ip), vehicle: saline) was 87 % of control.

`[I][Hg][CH2]C1COC([CH2][Hg][I])CO1` (stereo unspecified) was tested, and the T/C [5] was 110 % of control, the T/C (dose: 7.5 mg/kg/injection, schedule: Q01DX Z (ip), vehicle: carboxymethylcellulose (CMC)) was 97 % of control and the T/C [3] was 95 % of control. For the same molecule, the T/C (dose: 15.0 mg/kg/injection, schedule: Q01DX Z (ip), vehicle: carboxymethylcellulose (CMC)) was 119 % of control, the T/C [4] was 90 % of control and the T/C (dose: 60.0 mg/kg/injection, schedule: Q01DX Z (ip), vehicle: carboxymethylcellulose (CMC)) was 88 % of control and 103 % of control.
